Data taken from ChEMBL document CHEMBL1201862, “PubChem BioAssay data set” (2004).
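Cultured in 96-well plates, cells were exposed to test compound for 48 hours across five concentrations. GI50: concentration for 50% inhibition of growth.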 Active and inactive are the calls of the source. Rule as the data show it: active = GI50 up to about 1.1 µM and inactive = higher.

Legend:
Assay in all cases: NCI-60 cell line screen, 48 h
TK-10 = tested on: TK-10
BT-549 = tested on: BT-549
SF-295 = tested on: SF-295
SF-268 = tested on: SF-268
OVCAR-8 = tested on: OVCAR-8
HT-29 = tested on: HT-29
M14 = tested on: M14
SK-OV-3 = tested on: SK-OV-3
U-251 = tested on: U-251
CAKI-1 = tested on: CAKI-1
SR = tested on: SR
DU-145 = tested on: DU-145
MOLT-4 = tested on: MOLT-4
HOP-62 = tested on: HOP-62
T47D = tested on: T47D
RXF 393 = tested on: RXF 393
Malme-3M = tested on: Malme-3M
RPMI-8226 = tested on: RPMI-8226
HCT-15 = tested on: HCT-15
SK-MEL-2 = tested on: SK-MEL-2

Cc1nc(C)c(N2CCN(C(=O)NC(CCC(=O)O)C(=O)O)CC2)c(O)n1 (stereo not drawn)
GI50 (TK-10): > 100 µM (inactive)
GI50 (BT-549): > 100 µM (inactive)
GI50 (SF-295): > 100 µM (inactive)
GI50 (SF-268): > 100 µM (inactive)
GI50 (OVCAR-8): > 100 µM (inactive)
GI50 (HT-29): > 100 µM (inactive)
GI50 (M14): > 100 µM (inactive)
GI50 (SK-OV-3): > 100 µM (inactive)
GI50 (U-251): > 100 µM (inactive)
GI50 (CAKI-1): > 100 µM (inactive)
GI50 (SR): > 100 µM (inactive)
GI50 (DU-145): > 100 µM (inactive)
GI50 (MOLT-4): > 100 µM (inactive)
GI50 (HOP-62): > 100 µM (inactive)
GI50 (T47D): > 100 µM (inactive)
GI50 (RXF 393): > 100 µM (inactive)
GI50 (Malme-3M): > 100 µM (inactive)
GI50 (RPMI-8226): > 100 µM (inactive)
GI50 (HCT-15): > 100 µM

CCOC(=O)c1cc2c3c(cc(OC)c2[nH]1)N(C(=O)OCC)CC3
GI50 (BT-549): > 100 µM (inactive)
GI50 (SF-295): > 100 µM (inactive)
GI50 (SF-268): > 100 µM (inactive)
GI50 (OVCAR-8): > 100 µM (inactive)
GI50 (HT-29): > 100 µM (inactive)
GI50 (M14): > 100 µM (inactive)
GI50 (SK-OV-3): > 100 µM (inactive)
GI50 (U-251): > 100 µM (inactive)
GI50 (CAKI-1): > 100 µM (inactive)
GI50 (SR): 86.1 µM (inactive)
GI50 (DU-145): > 100 µM (inactive)
GI50 (MOLT-4): > 100 µM (inactive)
GI50 (HOP-62): > 100 µM (inactive)
GI50 (SK-MEL-2): > 100 µM (inactive)
GI50 (T47D): > 100 µM (inactive)
GI50 (RXF 393): > 100 µM (inactive)
GI50 (Malme-3M): > 100 µM (inactive)
GI50 (RPMI-8226): > 100 µM (inactive)
GI50 (HCT-15): > 100 µM

CC1=NN(c2nc(N)nc(C(C#N)C(=O)c3cc4c(cc3Cl)Sc3nccn3S4(=O)=O)n2)C(C)(C)C1 (stereo not drawn)
GI50 (TK-10): 17.9 µM (inactive)
GI50 (BT-549): 13.6 µM (inactive)
GI50 (SF-295): 20.5 µM (inactive)
GI50 (SF-268): 13.6 µM (inactive)
GI50 (OVCAR-8): 20.7 µM (inactive)
GI50 (HT-29): 34.3 µM (inactive)
GI50 (M14): 34.5 µM (inactive)
GI50 (SK-OV-3): 18.5 µM (inactive)
GI50 (U-251): 16 µM (inactive)
GI50 (CAKI-1): 13.5 µM (inactive)
GI50 (SR): 4.4 µM (inactive)
GI50 (DU-145): 16.8 µM (inactive)
GI50 (MOLT-4): 13 µM (inactive)
GI50 (HOP-62): 34.7 µM (inactive)
GI50 (SK-MEL-2): 20.2 µM (inactive)
GI50 (T47D): 14.6 µM (inactive)
GI50 (RXF 393): 27.3 µM (inactive)
GI50 (Malme-3M): 14.3 µM (inactive)
GI50 (RPMI-8226): 14.9 µM (inactive)
GI50 (HCT-15): 6.44 µM

COc1cc(S(=O)(=O)Nc2ccc(-c3csc(N4C(=O)CSC4c4ccccc4)n3)cc2)ccc1Cl (stereo not drawn)
GI50 (BT-549): 75.5 µM (inactive)
GI50 (SF-295): 96.6 µM (inactive)
GI50 (SF-268): 33.7 µM (inactive)
GI50 (OVCAR-8): > 100 µM (inactive)
GI50 (HT-29): 54.2 µM (inactive)
GI50 (M14): 43.8 µM (inactive)
GI50 (SK-OV-3): > 100 µM (inactive)
GI50 (CAKI-1): > 100 µM (inactive)
GI50 (SR): 32.3 µM (inactive)
GI50 (DU-145): > 100 µM (inactive)
GI50 (MOLT-4): 25.6 µM (inactive)
GI50 (HOP-62): 81.8 µM (inactive)
GI50 (SK-MEL-2): 37.2 µM (inactive)
GI50 (T47D): 16.3 µM (inactive)
GI50 (RXF 393): 29.2 µM (inactive)
GI50 (Malme-3M): > 100 µM (inactive)
GI50 (RPMI-8226): 24.4 µM (inactive)
GI50 (HCT-15): > 100 µM

O=c1c2cc(S(=O)(=O)O)ccc2nc(COc2ccc(Oc3ccc(Cl)cc3Cl)cc2)n1-c1ccc(Cl)cc1Oc1c(Cl)cccc1Cl
GI50 (TK-10): 29.4 µM (inactive)
GI50 (BT-549): 21.9 µM (inactive)
GI50 (SF-295): 21.8 µM (inactive)
GI50 (SF-268): 15.3 µM (inactive)
GI50 (OVCAR-8): 23.3 µM (inactive)
GI50 (HT-29): 20 µM (inactive)
GI50 (M14): 21.9 µM (inactive)
GI50 (SK-OV-3): 25.2 µM (inactive)
GI50 (U-251): 18.3 µM (inactive)
GI50 (CAKI-1): 30.3 µM (inactive)
GI50 (SR): 34 µM (inactive)
GI50 (DU-145): 38 µM (inactive)
GI50 (MOLT-4): 36 µM (inactive)
GI50 (HOP-62): 33.7 µM (inactive)
GI50 (SK-MEL-2): 18.6 µM (inactive)
GI50 (T47D): 46.1 µM (inactive)
GI50 (Malme-3M): 36.5 µM (inactive)
GI50 (RPMI-8226): 21.2 µM (inactive)
GI50 (HCT-15): 21 µM

O=C1Nc2ccccc2C1Cc1ccc([N+](=O)[O-])cc1 (stereo not drawn)
GI50 (TK-10): > 100 µM (inactive)
GI50 (BT-549): > 100 µM (inactive)
GI50 (SF-295): > 100 µM (inactive)
GI50 (SF-268): > 100 µM (inactive)
GI50 (OVCAR-8): > 100 µM (inactive)
GI50 (HT-29): > 100 µM (inactive)
GI50 (M14): > 100 µM (inactive)
GI50 (SK-OV-3): > 100 µM (inactive)
GI50 (U-251): > 100 µM (inactive)
GI50 (CAKI-1): > 100 µM (inactive)
GI50 (SR): 19.4 µM (inactive)
GI50 (DU-145): > 100 µM (inactive)
GI50 (MOLT-4): 14.1 µM (inactive)
GI50 (HOP-62): > 100 µM (inactive)
GI50 (SK-MEL-2): > 100 µM (inactive)
GI50 (T47D): > 100 µM (inactive)
GI50 (RXF 393): > 100 µM (inactive)
GI50 (RPMI-8226): 34.8 µM (inactive)
GI50 (HCT-15): > 100 µM

Oc1ccc([C@H]2c3c(O)cc(O)cc3C3c4c(cc(O)cc4[C@@H]2[C@H]2c4cc(O)cc5c4C(c4cc(O)cc(O)c4[C@@H]2c2ccc(O)cc2)[C@@H](c2ccc(O)cc2)O5)O[C@@H]3c2ccc(O)cc2)cc1 (stereo partly drawn)
GI50 (TK-10): > 100 µM (inactive)
GI50 (BT-549): > 100 µM (inactive)
GI50 (SF-295): 3.86 µM (inactive)
GI50 (SF-268): 1.61 µM (inactive)
GI50 (OVCAR-8): 2.69 µM (inactive)
GI50 (HT-29): 0.861 µM (active)
GI50 (M14): 6.25 µM (inactive)
GI50 (U-251): 3.55 µM (inactive)
GI50 (CAKI-1): > 100 µM (inactive)
GI50 (SR): 16.9 µM (inactive)
GI50 (DU-145): 2.99 µM (inactive)
GI50 (MOLT-4): 0.975 µM (active)
GI50 (HOP-62): 1.09 µM (active)
GI50 (SK-MEL-2): 1.58 µM (inactive)
GI50 (T47D): 0.536 µM (active)
GI50 (RXF 393): 0.0486 µM (active)
GI50 (Malme-3M): 0.411 µM (active)
GI50 (RPMI-8226): 41.4 µM (inactive)
GI50 (HCT-15): > 100 µM
